According to publication PMC3359661, “FK228 Analogues Induce Fetal Hemoglobin in Human Erythroid Progenitors” (Anemia, 2012):
Where “and” joins values, the source holds several entries; their conditions need not be identical. Identical values can stand only once.

Columns and labels:
[1] = test system: γ-promoter activity in GM979 stable line; settings: μLCRβprRluc AγprFluc GM979 stable line; cited from earlier work
Text: Many published studies have shown that primary erythroid cells remain the best system to confirm HbF-inducing agents and to serve as a predictor of efficacy in vivo. Human burst forming units—erythroid cells in clonogenic assays or erythroid progenitors grown in liquid culture [39, 41]—have been used to evaluate putative HbF inducers. However, these assays are not easily adaptable to large-scale drug screening, thus immortalized cell lines have been investigated for this purpose.

[2] = test system: γ-globin promoter activity in KU812-γF/βR stable lines; assay: KU812 dual-luciferase reporter stable lines (μLCRβprRluc AγprFluc), γ-globin promoter activity; assay type: cell-based, human; settings: 48 hr; for Fold change (γ/γ + 2β): untreated normalized to one
Text: KU812 stable cell lines were created by co-transfecting wild-type KU812 cells with pEGFP-NI (G418 selectable marker) and theμLCRβ prRluc ^A γ prFluc dual-reporter a kind gifts from Dr. George Stamatoyannopoulos (University of Washington). […] Likewise, 1.4 kb of human Aγ-globin promoter was inserted upstream of firefly luciferase to create ^A γ prFluc. The μLCR (locus control region), Pβ prRluc, and ^A γ prFluc fragments were subsequently cloned into the mammalian vector, pRL-null.
After 72 hr, G418 was added at a concentration of […] for 3 days then maintained under selection pressure indefinitely at a concentration of […]. KU812 stable lines were treated with the various drugs at the same concentrations described above. FK228 and analogues were screened at concentrations between 1–1000 nM for 48 hr and cell toxicity was monitored by 2% Trypan blue exclusion. The effect of drug treatments on γ-globin and β-globin promoter activity was monitored by luciferase assay.
Luciferase activity was monitored under the different experimental conditions using the Dual Luciferase Assay Reporter System (Promega, Madison, WI). The activity of firefly luciferase represents γ-globin promoter activity (γF), while the renilla luciferase is the read-out for β-globin promoter activity (βR). The β-globin promoter was strategically cloned between the LCR and γ-globin promoter to increase β expression, while simultaneously increasing the sensitivity of detection of γ-globin gene inducers.
After drug treatments, KU812 stable cells were washed with 1X phosphate buffered saline and lysed in 1X Passive Lysis Buffer for 15 min, then protein extracts were added to the Luciferase Assay Reagent II and firefly luciferase activity quantified in a Turner Designs TD-20/20 luminometer (Sunnyvale, CA). To measure βR activity, Stop & Glo Reagents was added to measure the renilla luciferase activity. Total protein was determined by Bradford assay on a Beckman DU 640 spectrophotometer (Chaska, MN) and luciferase activity was corrected for total protein.
Subsequently, three independent dual-luciferase reporter KU812 stable cell lines were established to analyze the ability FK228 analogues to induce γ-globin promoter activity without an effect on β-globin transcription. […] Since the firefly luciferase gene (γF) has approximately […] luminescence than the renilla gene (βR), the renilla activity was multiplied by two to adjust for the difference in luminescence yielding the γ/γ+2β final measurement. The FK228 analogues were examined at concentrations ranging from 1–1000 nM in the three stable lines. After 48-hour treatments, cells were harvested and protein isolated for luciferase activity using the Dual Luciferase Reporter Assay.

[3] = test system: HbF levels in primary erythroid cells; assay: HbF ELISA in primary erythroid cells; assay type: cell-based, human
Description: The two-phase liquid culture system was established as previously published by Fibach et al. using buffy coat mononuclear cells, purchased from Carter Blood Care (Fort Worth, TX) in accordance with the guidelines of the Institutional Review Board at the University of Texas at Dallas. During phase 1, cells were grown in IMDM medium with 30% fetal bovine serum and 50 ng/mL each of the granulocyte-monocyte colony-stimulating factor, Interleukin-3, and stem cell factor. Subsequently, phase 2 was initiated on day 7 with the addition of erythropoietin (2 U/mL) and stem cell factor (50 ng/mL). The cells were treated on Day 11 with the different test compounds and harvested on Day 14 (72 hr incubation).
Total hemoglobin was quantified using 20 μL of protein extract from one million KU812 cells mixed with 5 mL of Drabkin's reagent (Sigma); then cyanmethemoglobin was measured at the 540 nm wavelength. HbF levels were quantified using the human Hemoglobin F ELISA Quantitation Kit (Bethyl Laboratory, Montgomery, TX). Briefly, 96-well plates were coated with sheep anti-human HbF antibody (1 mg/mL). After blocking with 1% bovine serum albumin, horse radish peroxidase-conjugated secondary antibody (1 mg/mL) was added. Raw data were analyzed using GraphPad PRISM (GraphPad Software, Inc., La Jolla, CA) and HbF levels were calculated as a ratio of total hemoglobin corrected for total protein (HbF/total Hb/total protein).

FK228
concentration inducing γ-promoter activity [1]: 1 nM
γ/γ + 2β Mean ([2]; Line 1, firefly (γ) / renilla (β) luciferase corrected for total protein, mean, conc: Cys 10 mM, Hemin 50 μM, SAHA 2000 nM, FK228 1.5 nM, 1127Ox 1000 nM, JMA1 1.5 nM, JMA2 1.0 nM, JMA12 1000 nM, JMA26 500 nM, JMA33 1000 nM, JMA112 100 nM, untreated 0.0402): 0.1197
Fold change (γ/γ + 2β) ([2]; Line 1, concentrations as in E1): 2.975
γ/γ + 2β Mean ([2]; Line 2, concentrations as in E1, untreated 0.1573): 0.6167
Fold change (γ/γ + 2β) ([2]; Line 2, concentrations as in E1): 3.929
γ/γ + 2β Mean ([2]; Line 3, concentrations as in E1, untreated 0.0721): 0.1583
Fold change (γ/γ + 2β) ([2]; Line 3, concentrations as in E1): 2.194
Fold change in HbF levels ([3]; relative to untreated = 1, concentrations as in E7): 2.4 fold and 2.454 fold
Fetal hemoglobin quantification, Mean (HbF/total Hb/total protein) ([3]; treated Day 11, harvested Day 14, conc: Cys 10 mM, Hemin 50 μM, SAHA 2000 nM, FK228 1.5 nM, JMA1 1.5 nM, JMA2 1.0 nM, JMA26 500 nM, JMA33 1000 nM, untreated 0.683): 1.676
